Assay: Cholesterol blood level of hypercholesterolemic patients treated with atorvastatin
Type: in vivo, human
Settings: day 3 vs day 0, single dose 80 mg, five patients
Method: Further, the influence of cholesterol depletion in freshly isolated B cells of hypercholesterolemic patients treated with atorvastatin was studied. A small exploratory clinical trial was performed in which hypercholesterolemic patients (n=5) were treated with a single dose of 80 mg atorvastatin (taken in the evening) in order to reduce their cholesterol blood level and determine the effect on CD20 mAb binding on isolated B cells using flow cytometry. Approval of the study was obtained from the ethics review board of the Warsaw University Medical Center. Informed consent was provided according to the Declaration of Helsinki. […]
The cholesterol blood level was measured using automated dry chemistry system (Vitroz 250 System Chemistry (Ortho-Clinical Diagnostics, Johnson&Johnson, Piscataway, N.J.). A starting cholesterol blood level of […] was required for patients to enroll in the clinical trial. At time of recruitment, patient I.D.#4 presented with a cholesterol blood concentration […], and as such was considered hypercholesterolemic. At time of recruitment the blood cholesterol level of patient I.D.#5 turned out to be below this cut off value, and thus it can be argued whether this patient should be considered hypercholesterolemic. […] Cholesterol blood levels were subsequently measured on day 0 (pretreatment) and day 3 after treatment. […]

Q: For `CC(C)c1c(C(=O)Nc2ccccc2)c(-c2ccccc2)c(-c2ccc(F)cc2)n1CC[C@@H](O)C[C@@H](O)CC(=O)O` [atorvastatin], which “reduction of average cholesterol blood concentration” value is on record?
A: 17%

From patent US20110091473A1, “NOVEL ANTIBODY THERAPIES” (GENMAB A/S, priority 2007, published 2011)
